# Source: patent US20230271938A1, “BENZIMIDAZOLES FOR USE IN THE TREATMENT OF CANCER AND INFLAMMATORY DISEASES” (Capella Therapeutics, Inc., priority 2015, published 2023)
# pIC50: −log10 of the molar value.
# Molecular target: T1, BMX (Homo sapiens, UniProt P51813)
# T1 sequence (P51813 1-675): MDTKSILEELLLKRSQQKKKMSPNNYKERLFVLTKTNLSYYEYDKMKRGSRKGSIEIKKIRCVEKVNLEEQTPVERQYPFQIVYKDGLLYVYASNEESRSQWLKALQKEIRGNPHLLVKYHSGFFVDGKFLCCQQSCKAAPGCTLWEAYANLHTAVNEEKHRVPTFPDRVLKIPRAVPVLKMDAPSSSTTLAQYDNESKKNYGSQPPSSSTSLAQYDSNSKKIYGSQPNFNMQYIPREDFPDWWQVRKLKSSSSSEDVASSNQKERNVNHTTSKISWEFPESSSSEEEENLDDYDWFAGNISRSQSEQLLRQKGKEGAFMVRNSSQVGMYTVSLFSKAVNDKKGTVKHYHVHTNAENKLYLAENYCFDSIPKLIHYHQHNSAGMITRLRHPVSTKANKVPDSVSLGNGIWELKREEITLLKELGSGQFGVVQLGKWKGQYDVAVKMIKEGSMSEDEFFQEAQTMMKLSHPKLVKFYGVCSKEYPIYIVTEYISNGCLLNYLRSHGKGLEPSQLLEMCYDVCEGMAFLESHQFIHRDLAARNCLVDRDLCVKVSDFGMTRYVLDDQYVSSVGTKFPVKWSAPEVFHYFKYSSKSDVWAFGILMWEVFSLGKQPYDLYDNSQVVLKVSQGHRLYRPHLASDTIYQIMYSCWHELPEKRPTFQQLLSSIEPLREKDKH
# Assay: Inhibition of BMX kinase
# Assay type: biochemical
# Details: 1% DMSO
# Excerpt: The Z′-LYTE® biochemical assay is a fluorescence-based, coupled-enzyme assay based on the differential sensitivity of phosphorylated and non-phosphorylated peptides to proteolytic cleavage. A peptide substrate for a kinase is labeled with two fluorophores, one at each end, to form a FRET pair.
# In the primary reaction, the kinase transfers the gamma-phosphate of ATP to a single tyrosine, serine, or threonine residue in the synthetic FRET-peptide substrate. In the secondary reaction, a site-specific protease recognizes and cleaves non-phosphorylated FRET-peptides. Cleavage disrupts FRET between the donor and acceptor fluorophores on the FRET-peptide, whereas uncleaved, phosphorylated FRET-peptides maintain FRET. An inhibitory activity of a compound is thus determined from its effect on the cleavage of the synthetic FRET-peptide substrate.
# Inhibition of BMX, BTK, ITK, and TXK kinases by a test compound is determined in 50 mM HEPES, pH 7.5, 0.01% BRIJ-35, 10 mM MgCl2, and 1 mM EGTA in the presence of 1% DMSO by volume.
# Inhibition of BMX, BTK, PIK3C-D, ITK, TEC, and TXK kinases by compound A2 was measured using one of the assays described in Examples 2A and 3A.
compound,measurement,value
"C=CC(=O)N1CCCC[C@@H](n2c(NC(=O)c3ccnc(C)c3)nc3cccc(OC4CCN(C(C)=O)CC4)c32)C1 [Compound A2, (R)-N-(7-((1-acetylpiperidin-4-yl)oxy)-1-(1-acryloylazepan-3-yl)-1H-benzo[d]imidazol-2-yl)-2-methylisonicotinamide]",pIC50,≥ 8.00
same,Inhibition,A (A represents a value no greater than 10 nM or no less than 90% inhibition)
